Patent US20260193249A1, “PREPARATION OF PYRAZOLOPYRIDINE AND TRIAZOLOPYRIDINE DERIVATIVES AS NOVEL DIACYLGLYCERIDE O-ACYLTRANSFERASE 2 INHIBITORS” (Merck Sharp & Dohme LLC, priority 2022, published 2026)

Molecular target: T1, human DGAT2 (Homo sapiens, UniProt Q96PD7)
T1 construct: made in house; host or cells: Sf-9 insect cells (baculovirus), membrane fraction
T1 sequence (Q96PD7 1-388): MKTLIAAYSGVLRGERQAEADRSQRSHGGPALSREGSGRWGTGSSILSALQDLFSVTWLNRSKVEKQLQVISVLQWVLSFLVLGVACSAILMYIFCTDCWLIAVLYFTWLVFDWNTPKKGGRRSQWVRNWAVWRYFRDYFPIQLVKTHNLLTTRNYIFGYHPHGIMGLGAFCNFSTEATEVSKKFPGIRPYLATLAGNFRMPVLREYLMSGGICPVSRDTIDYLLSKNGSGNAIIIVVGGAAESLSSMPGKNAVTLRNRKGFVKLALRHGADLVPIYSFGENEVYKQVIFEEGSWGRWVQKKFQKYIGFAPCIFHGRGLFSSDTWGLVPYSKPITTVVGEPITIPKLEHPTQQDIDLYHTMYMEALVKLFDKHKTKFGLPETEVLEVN
Assay: DGAT2 Enzymatic Activity Assay
Assay type: biochemical
Conditions: membrane prep of Sf-9 insect cells expressing hDGAT2; 13C18-triolein product by LC/MS/MS; 25 μM diolein, 5 μM 13C oleoyl-CoA
Protocol: Sf-9 insect cells were maintained in Grace's insect cell culture medium with 10% heated-inactivated fetal bovine serum, 1% Pluronic F-68 and 0.14 μg/ml Kanamycine sulfate at 27° C. in a shaker incubator. After infection with untagged baculovirus expressing human DGAT2 (hDGAT2) at multiplicity of infection (MOI) 3 for 48 hours, cells were harvested. Cell pellets were suspended in buffer containing 10 mM Tris-HCl pH 7.5, 1 mM EDTA, 250 mM sucrose and Complete Protease Inhibitor Cocktail (Sigma Aldrich), and sonicated on ice. Cell debris were removed by centrifugation at 2000×g for 15 minutes. Membrane fractions were isolated by ultracentrifugation (100,000×g), resuspended in the same buffer, and frozen (−80° C.) for later use. The protein concentration was determined with the Pierce™ BCA Protein Assay Kit (Thermo Fisher Scientific).
LC/MS/MS analyses were performed using Thermal Fisher's LX4-TSQ Vantage system. This system consists of an Agilent binary high-performance liquid chromatography (HPLC) pump and a TSQ Vantage triple quadrupole MS/MS instrument. For each sample, 2 μL samples from the top organic layer of in-plate liquid-liquid extraction were injected onto a Thermo Betabasic C4 column (2.1 mm×20 mm, 5 μm particle size). The samples were then eluted using the following conditions; mobile phase: Isopropanol:acetonitrile/10 mM ammonium formate=50/35/15 (v/v/v), flow rate: 0.8 mL/min, temperature: 25° C. Data was acquired in positive mode using a heated electrospray ionization (HESI) interface. […] The peak area was integrated by Xcalibur Quan software. The ratio between the ^13C18triolein generated in the reaction and spiked in internal standard ^13C21-triolein was used to generate percentage inhibition and IC50 values. Compound percentage inhibition was calculated by the following formula: Inhibition %=1−[(compound response−low control)/(high control−low control)]×100%.
DGAT2 activity was determined by measuring the amount of enzymatic product ^13C18-triolein (^13C-1,2,3-Tri(cis-9-octadecenoyl)glycerol) using the membrane prep mentioned above. The assay was carried out in ABgene 384-well assay plates in a final volume of 25 μL at rt.

Structure (SMILES) | IC50 [nM]
CN1C(C)(C)C(NC(=O)c2cc3cc(Oc4ncccc4OCC(F)(F)F)ccn3n2)CS1(=O)=O (racemic) [Example 2, 5-((3-(2,2,2-Trifluoroethoxy)pyridin-2-yl)oxy)-N-(2,3,3-trimethyl-1,1-dioxidoisothiazolidin-4-yl)pyrazolo[1,5-a]pyridine-2-carboxamide] | 787
CC1(NC(=O)c2cc3cc(Oc4ncc(C(O)C5CC5)cc4OCC(F)(F)F)ccn3n2)CCS(=O)(=O)CC1 (single isomer, unassigned) [Example 43a, 5-((5-(Cyclopropyl(hydroxy)methyl)-3-(2,2,2-trifluoroethoxy)pyridin-2-yl)oxy)-N-(4-methyl-1,1-dioxidotetrahydro-2H-thiopyran-4-yl)pyrazolo[1,5-a]pyridine-2-carboxamide] | 228
CC1(NC(=O)c2cc3cc(Oc4ncc(C(O)C5CC5)cc4OCC(F)(F)F)ccn3n2)CCS(=O)(=O)CC1 (single isomer, unassigned) [Example 43b, 5-((5-(Cyclopropyl(hydroxy)methyl)-3-(2,2,2-trifluoroethoxy)pyridin-2-yl)oxy)-N-(4-methyl-1,1-dioxidotetrahydro-2H-thiopyran-4-yl)pyrazolo[1,5-a]pyridine-2-carboxamide] | > 9990
CC(O)c1cnc(Oc2ccn3nc(C(=O)NC4(C)CCS(=O)(=O)CC4)cc3c2)c(OCC(F)(F)F)c1 (single isomer, unassigned) [Example 44a, 5-((5-(1-Hydroxyethyl)-3-(2,2,2-trifluoroethoxy)pyridin-2-yl)oxy)-N-(4-methyl-1,1-dioxidotetrahydro-2H-thiopyran-4-yl)pyrazolo[1,5-a]pyridine-2-carboxamide] | 111
CC(O)c1cnc(Oc2ccn3nc(C(=O)NC4(C)CCS(=O)(=O)CC4)cc3c2)c(OCC(F)(F)F)c1 (single isomer, unassigned) [Example 44b, 5-((5-(1-Hydroxyethyl)-3-(2,2,2-trifluoroethoxy)pyridin-2-yl)oxy)-N-(4-methyl-1,1-dioxidotetrahydro-2H-thiopyran-4-yl)pyrazolo[1,5-a]pyridine-2-carboxamide] | 332
CC1(NC(=O)c2cc3cc(Oc4ncc(C(O)C(F)(F)F)cc4OCC(F)(F)F)ccn3n2)CS(=O)(=O)C1 (single isomer, unassigned) [Example 45a, N-(3-Methyl-1,1-dioxidothietan-3-yl)-5-((5-(2,2,2-trifluoro-1-hydroxyethyl)-3-(2,2,2-trifluoroethoxy)pyridin-2-yl)oxy)pyrazolo[1,5-a]pyridine-2-carboxamide] | > 9990
CC1(NC(=O)c2cc3cc(Oc4ncc(C(O)C(F)(F)F)cc4OCC(F)(F)F)ccn3n2)CS(=O)(=O)C1 (single isomer, unassigned) [Example 45b, N-(3-Methyl-1,1-dioxidothietan-3-yl)-5-((5-(2,2,2-trifluoro-1-hydroxyethyl)-3-(2,2,2-trifluoroethoxy)pyridin-2-yl)oxy)pyrazolo[1,5-a]pyridine-2-carboxamide] | 1560
CC(O)c1c(C(=O)NC2(C)CCS(=O)(=O)CC2)nn2ccc(Oc3ncccc3OCC(F)(F)F)cc12 (single isomer, unassigned) [Example 52a, 3-(1-Hydroxyethyl)-N-(4-methyl-1,1-dioxidotetrahydro-2H-thiopyran-4-yl)-5-((3-(2,2,2-trifluoroethoxy)pyridin-2-yl)oxy)pyrazolo[1,5-a]pyridine-2-carboxamide] | 1590
CC(O)c1c(C(=O)NC2(C)CCS(=O)(=O)CC2)nn2ccc(Oc3ncccc3OCC(F)(F)F)cc12 (single isomer, unassigned) [Example 52b, 3-(1-Hydroxyethyl)-N-(4-methyl-1,1-dioxidotetrahydro-2H-thiopyran-4-yl)-5-((3-(2,2,2-trifluoroethoxy)pyridin-2-yl)oxy)pyrazolo[1,5-a]pyridine-2-carboxamide] | 333
CC1(NC(=O)c2cc3cc(Oc4ncccc4OCC(F)(F)F)ccn3n2)CCS(=O)(=O)CC1 [Example 1, N-(4-Methyl-1,1-dioxidotetrahydro-2H-thiopyran-4-yl)-5-((3-(2,2,2-trifluoroethoxy)pyridin-2-yl)oxy)pyrazolo[1,5-a]pyridine-2-carboxamide] | 9.7
CC(C)(CNS(C)(=O)=O)NC(=O)c1cc2cc(Oc3ncccc3OCC(F)(F)F)ccn2n1 [Example 3, N-(2-Methyl-1-(methylsulfonamido)propan-2-yl)-5-((3-(2,2,2-trifluoroethoxy)pyridin-2-yl)oxy)pyrazolo[1,5-a]pyridine-2-carboxamide] | 694
O=C(NC1CCCN(CC(F)(F)F)C1=O)c1cc2cc(Oc3ncccc3OCC(F)(F)F)ccn2n1 (stereo not shown) [Example 4, N-(2-Oxo-1-(2,2,2-trifluoroethyl)piperidin-3-yl)-5-((3-(2,2,2-trifluoroethoxy)pyridin-2-yl)oxy)pyrazolo[1,5-a]pyridine-2-carboxamide] | 309
CC1(NC(=O)c2cc3cc(Oc4ncccc4OCC(F)(F)F)ccn3n2)CS(=O)(=O)C1 [Example 5, N-(3-Methyl-1,1-dioxidothietan-3-yl)-5-((3-(2,2,2-trifluoroethoxy)pyridin-2-yl)oxy)pyrazolo[1,5-a]pyridine-2-carboxamide] | 149
O=C(N[C@H]1CCOC1)c1cc2cc(Oc3ncccc3OCC(F)(F)F)ccn2n1 [Example 6, (S)-N-(Tetrahydrofuran-3-yl)-5-((3-(2,2,2-trifluoroethoxy)pyridin-2-yl)oxy)pyrazolo[1,5-a]pyridine-2-carboxamide] | > 9990
O=C(NC1CCCC1)c1cc2cc(Oc3ncccc3OCC(F)(F)F)ccn2n1 [Example 7, N-Cyclopentyl-5-((3-(2,2,2-trifluoroethoxy)pyridin-2-yl)oxy)pyrazolo[1,5-a]pyridine-2-carboxamide] | 1070
C[C@@]1(NC(=O)c2cc3cc(Oc4nccnc4OCC(F)F)ccn3n2)CCS(=O)(=O)C1 [Example 8, (R)-5-((3-(2,2-Difluoroethoxy)pyrazin-2-yl)oxy)-N-(3-methyl-1,1-dioxidotetrahydrothiophen-3-yl)pyrazolo[1,5-a]pyridine-2-carboxamide] | 211
CC1(NC(=O)c2cc3cc(Oc4nccnc4OCC(F)F)ccn3n2)CCS(=O)(=O)CC1 [Example 9, 5-((3-(2,2-Difluoroethoxy)pyrazin-2-yl)oxy)-N-(4-methyl-1,1-dioxidotetrahydro-2H-thiopyran-4-yl)pyrazolo[1,5-a]pyridine-2-carboxamide] | 2.3
CC1(NC(=O)c2cc3cc(Oc4ncc(F)cc4OC4CC4)ccn3n2)CCS(=O)(=O)CC1 [Example 10, 5-((3-Cyclopropoxy-5-fluoropyridin-2-yl)oxy)-N-(4-methyl-1,1-dioxidotetrahydro-2H-thiopyran-4-yl)pyrazolo[1,5-a]pyridine-2-carboxamide] | 85
CC1(NC(=O)c2cc3cc(Oc4ncc(F)cc4OCC(F)F)ccn3n2)CS(=O)(=O)C1 [Example 11, 5-((3-(2,2-Difluoroethoxy)-5-fluoropyridin-2-yl)oxy)-N-(3-methyl-1,1-dioxidothietan-3-yl)pyrazolo[1,5-a]pyridine-2-carboxamide] | 2.5
CC1(NC(=O)c2cc3cc(Oc4ncc(F)cc4OC4CC4)ccn3n2)CS(=O)(=O)C1 [Example 12, 5-((3-Cyclopropoxy-5-fluoropyridin-2-yl)oxy)-N-(3-methyl-1,1-dioxidothietan-3-yl)pyrazolo[1,5-a]pyridine-2-carboxamide] | 1800
CC1(NC(=O)c2cc3cc(Oc4nccnc4OCC(F)(F)F)ccn3n2)CCS(=O)(=O)CC1 [Example 13, N-(4-Methyl-1,1-dioxidotetrahydro-2H-thiopyran-4-yl)-5-((3-(2,2,2-trifluoroethoxy)pyrazin-2-yl)oxy)pyrazolo[1,5-a]pyridine-2-carboxamide] | 17
CC1(NC(=O)c2cc3cc(Oc4ncc(Cl)cc4OCC(F)(F)F)ccn3n2)CS(=O)(=O)C1 [Example 15, 5-((5-Chloro-3-(2,2,2-trifluoroethoxy)pyridin-2-yl)oxy)-N-(3-methyl-1,1-dioxidothietan-3-yl)pyrazolo[1,5-a]pyridine-2-carboxamide] | 2.5
